This data set can be described thus: Solubilization of cannabinoids in NaOH and KOH solutions. The format is physicochemical. On the procedure: Concentration Selection: NaOH and KOH solutions having concentrations ranging from 0M to 2M were prepared and tested for their ability to solubilize D9THCA and CBDA. […] All forms of cannabinoids were extracted using NaOH and KOH. It was also determined that neutral cannabinoids were removed from the plant to a much less extent during base extraction.

Consider 2 molecules from patent US20240285705A1, “AQUEOUS EXTRACTION OF CANNABINOIDS” (Curaleaf, Inc., priority 2023, published 2024).

As for `C=C(C)[C@@H]1CCC(C)=C[C@H]1c1c(O)cc(CCCCC)c(C(=O)O)c1O` [CBDA, cannabidolic acid], the Solubility result (NaOH and KOH solutions, concentrations ranging from 0M to 2M) is “higher than D9THC”. Take `CCCCCc1cc2c(c(O)c1C(=O)O)[C@@H]1C=C(C)CC[C@H]1C(C)(C)O2` [D9THCA, tetrahydrocannabinolic acid]: the “Degradation by strong base” value (NaOH/KOH solution above 0.3M) is “begins to noticeable degrade”.
